Data: ChEMBL document CHEMBL1201862, “PubChem BioAssay data set” (2004)
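Grown in 96-well plates, cells were treated for 48 hours with each compound at five concentrations. Insufficient inhibition: endpoint recorded as highest concentration tested. GI50 = concentration required for 50% inhibition of growth.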 Active and inactive are the calls of the source. No stated cut-off is given here; in the data, active = GI50 up to about 1.1 µM and inactive = higher.

Assays:
Assay in all cases: NCI anticancer screen, dose series, 48 h
SNB-19 = tested on: SNB-19
786-0 = tested on: 786-0
TK-10 = tested on: TK-10
OVCAR-5 = tested on: OVCAR-5
HOP-92 = tested on: HOP-92
HOP-18 = tested on: HOP-18
SW-620 = tested on: SW-620
CAKI-1 = tested on: CAKI-1
KM12 = tested on: KM12
K562 = tested on: K562
NCI-H522 = tested on: NCI-H522
XF498 = tested on: XF498
HOP-62 = tested on: HOP-62
EKVX = tested on: EKVX
RXF 631 = tested on: RXF 631
UACC-62 = tested on: UACC-62
DMS-114 = tested on: DMS-114
MOLT-4 = tested on: MOLT-4
OVCAR-8 = tested on: OVCAR-8
SK-MEL-5 = tested on: SK-MEL-5
NCI-H23 = tested on: NCI-H23
SF-268 = tested on: SF-268
DLD-1 = tested on: DLD-1
SNB-78 = tested on: SNB-78
HT-29 = tested on: HT-29
IGROV-1 = tested on: IGROV-1
M14 = tested on: M14
HL-60 = tested on: HL-60
RPMI-8226 = tested on: RPMI-8226
RXF 393 = tested on: RXF 393
ACHN = tested on: ACHN
CCRF-CEM = tested on: CCRF-CEM
SK-MEL-2 = tested on: SK-MEL-2
NCI-H226 = tested on: NCI-H226
LOX IMVI = tested on: LOX IMVI
HCT-116 = tested on: HCT-116
OVCAR-4 = tested on: OVCAR-4
UACC-257 = tested on: UACC-257
A549 = tested on: A549
OVCAR-3 = tested on: OVCAR-3
LXFL 529 = tested on: LXFL 529
SK-MEL-28 = tested on: SK-MEL-28
M19-MEL = tested on: M19-MEL
UO-31 = tested on: UO-31
NCI-H460 = tested on: NCI-H460
SF-295 = tested on: SF-295
HCT-15 = tested on: HCT-15
HCC 2998 = tested on: HCC 2998
Malme-3M = tested on: Malme-3M
SF-539 = tested on: SF-539
SK-OV-3 = tested on: SK-OV-3
SN12C = tested on: SN12C
U-251 = tested on: U-251
SR = tested on: SR
DMS-273 = tested on: DMS-273
COLO 205 = tested on: COLO 205
SNB-75 = tested on: SNB-75
KM-20L2 = tested on: KM-20L2

CC1=C(C(=O)CC(=O)C(=O)Nc2cc(C)ccc2C)Sc2ccccc2N1
GI50 (SNB-19): > 100 µM (inactive) | GI50 (786-0): > 100 µM (inactive) | GI50 (TK-10): > 100 µM (inactive) | GI50 (OVCAR-5): > 100 µM (inactive) | GI50 (HOP-92): 85.7 µM (inactive) | GI50 (HOP-18): > 100 µM (inactive) | GI50 (SW-620): > 100 µM (inactive) | GI50 (CAKI-1): > 100 µM (inactive) | GI50 (KM12): > 100 µM (inactive) | GI50 (K562): > 100 µM (inactive) | GI50 (NCI-H522): > 100 µM (inactive) | GI50 (XF498): > 100 µM (inactive) | GI50 (HOP-62): > 100 µM (inactive) | GI50 (EKVX): > 100 µM (inactive) | GI50 (RXF 631): > 100 µM (inactive) | GI50 (UACC-62): > 100 µM (inactive) | GI50 (DMS-114): > 100 µM (inactive) | GI50 (MOLT-4): 66.7 µM (inactive) | GI50 (OVCAR-8): 66.8 µM (inactive) | GI50 (SK-MEL-5): > 100 µM (inactive) | GI50 (NCI-H23): > 100 µM (inactive) | GI50 (SF-268): > 100 µM (inactive) | GI50 (DLD-1): 92.3 µM (inactive) | GI50 (SNB-78): > 100 µM (inactive) | GI50 (HT-29): > 100 µM (inactive) | GI50 (IGROV-1): > 100 µM (inactive) | GI50 (M14): > 100 µM (inactive) | GI50 (HL-60): > 100 µM (inactive) | GI50 (RPMI-8226): > 100 µM (inactive) | GI50 (RXF 393): > 100 µM (inactive) | GI50 (ACHN): > 100 µM (inactive) | GI50 (CCRF-CEM): 80.9 µM (inactive) | GI50 (SK-MEL-2): > 100 µM (inactive) | GI50 (NCI-H226): > 100 µM (inactive) | GI50 (LOX IMVI): > 100 µM (inactive) | GI50 (HCT-116): > 100 µM (inactive) | GI50 (OVCAR-4): > 100 µM (inactive) | GI50 (UACC-257): > 100 µM (inactive) | GI50 (A549): > 100 µM (inactive) | GI50 (OVCAR-3): > 100 µM (inactive) | GI50 (LXFL 529): > 100 µM (inactive) | GI50 (SK-MEL-28): > 100 µM (inactive) | GI50 (M19-MEL): > 100 µM (inactive) | GI50 (UO-31): > 100 µM (inactive) | GI50 (NCI-H460): > 10 µM (inactive) | GI50 (SF-295): 32 µM (inactive) | GI50 (HCT-15): > 100 µM | GI50 (HCC 2998): > 100 µM (inactive) | GI50 (Malme-3M): > 100 µM (inactive) | GI50 (SF-539): > 100 µM (inactive) | GI50 (SK-OV-3): > 100 µM (inactive) | GI50 (SN12C): > 100 µM (inactive) | GI50 (U-251): > 100 µM (inactive)

O=C(c1ccccc1)[C@H]1Nc2ccc(Cl)cc2C2c3ccccc3CC21 (stereo not given in full)
GI50 (SNB-19): > 100 µM (inactive) | GI50 (SR): 71.6 µM (inactive) | GI50 (786-0): 30.8 µM (inactive) | GI50 (TK-10): 57.1 µM (inactive) | GI50 (OVCAR-5): > 100 µM (inactive) | GI50 (SW-620): 50.5 µM (inactive) | GI50 (DMS-273): 66.8 µM (inactive) | GI50 (CAKI-1): > 100 µM (inactive) | GI50 (KM12): > 100 µM (inactive) | GI50 (K562): 25.6 µM (inactive) | GI50 (NCI-H522): 95.3 µM (inactive) | GI50 (XF498): 21.5 µM (inactive) | GI50 (HOP-62): 46.1 µM (inactive) | GI50 (RXF 631): 27.8 µM (inactive) | GI50 (UACC-62): > 10 µM (inactive) | GI50 (DMS-114): 69.3 µM (inactive) | GI50 (MOLT-4): 11.9 µM (inactive) | GI50 (OVCAR-8): 53.8 µM (inactive) | GI50 (COLO 205): 41.1 µM (inactive) | GI50 (SK-MEL-5): 21.3 µM (inactive) | GI50 (NCI-H23): 60.3 µM (inactive) | GI50 (SF-268): > 100 µM (inactive) | GI50 (SNB-75): 20.8 µM (inactive) | GI50 (DLD-1): > 100 µM (inactive) | GI50 (SNB-78): > 100 µM (inactive) | GI50 (HT-29): 83.9 µM (inactive) | GI50 (IGROV-1): > 100 µM (inactive) | GI50 (M14): 31.6 µM (inactive) | GI50 (RPMI-8226): > 100 µM (inactive) | GI50 (RXF 393): 10.5 µM (inactive) | GI50 (ACHN): 45.2 µM (inactive) | GI50 (SK-MEL-2): 67 µM (inactive) | GI50 (NCI-H226): 36.7 µM (inactive) | GI50 (LOX IMVI): 50.4 µM (inactive) | GI50 (HCT-116): 26 µM (inactive) | GI50 (OVCAR-4): 22.2 µM (inactive) | GI50 (UACC-257): 18.5 µM (inactive) | GI50 (A549): 34.6 µM (inactive) | GI50 (OVCAR-3): 21 µM (inactive) | GI50 (LXFL 529): 27.8 µM (inactive) | GI50 (SK-MEL-28): 32.3 µM (inactive) | GI50 (M19-MEL): 71.4 µM (inactive) | GI50 (UO-31): > 100 µM (inactive) | GI50 (NCI-H460): 63.5 µM (inactive) | GI50 (SF-295): 18.5 µM (inactive) | GI50 (HCT-15): 60 µM | GI50 (HCC 2998): 19.9 µM (inactive) | GI50 (Malme-3M): > 10 µM (inactive) | GI50 (SF-539): > 100 µM (inactive) | GI50 (SN12C): 83.2 µM (inactive) | GI50 (U-251): 47.6 µM (inactive) | GI50 (KM-20L2): > 100 µM (inactive)
